Data on 29 compounds can be found in patent US7087634B2, “Cyclic AMP-specific phosphodiesterase inhibitors” (ICOS Corporation, priority 1999, dated 2006).

The target of one assay is T1, human recombinant PDE4 (Homo sapiens, UniProt Q07343).
T1 construct: made in house; host or cells: Saccharomyces cerevisiae BJ2-54
In words: Inhibition of human recombinant PDE4 (charcoal separation PDE assay). It counts as biochemical. How it is done:
The compounds of structural formula (I) were tested for an ability to inhibit PDE4. […] The IC50 value for compounds of structural formula (I) were determined using human recombinant PDE4.
Phosphodiesterase activity of the preparations was determined as follows. […] In this assay, PDE activity converts [32P]cAMP or [32P]cGMP to the corresponding [32P]5′-AMP or [32P]5′-GMP in proportion to the amount of PDE activity present. The [32P]5′-AMP or [32P]5′-GMP then was quantitatively converted to free [32P]phosphate and unlabeled adenosine or guanosine by the action of snake venom 5′-nucleotidase. […] The assay was performed at 30° C. in a 100 μL reaction mixture containing (final concentrations) 40 mM Tris HCl (pH 8.0), 1 μM ZnSO4, 5 mM MgCl2, and 0.1 mg/mL bovine serum albumin (BSA). Alternatively, in assays assessing PDE1-specific activity, incubation mixtures further incorporated the use of 0.1 mM CaCl2 and 10 μg/mL calmodulin. PDE enzyme was present in quantities that yield <30% total hydrolysis of substrate (linear assay conditions). The assay was initiated by addition of substrate (1 mM [32P]cAMP or cGMP), and the mixture was incubated for 12 minutes. Seventy-five (75) μg of Crotalus atrox venom then was added, and the incubation was continued for 3 minutes (15 minutes total). The reaction was stopped by addition of 200 μL of activated charcoal (25 mg/mL suspension in 0.1 M NaH2PO4, pH 4). After centrifugation (750×g for 3 minutes) to sediment the charcoal, a sample of the supernatant was taken for radioactivity determination in a scintillation counter and the PDE activity was calculated.

The subject of assay [1] is TNFα release from human peripheral blood lymphocytes. In words: Lipopolysaccharide-stimulated TNFα release from human peripheral blood lymphocytes. It counts as cell-based. The note with it: Lymphocyte. On the procedure: The compounds of structural formulae (I) and (II) were tested for an ability to reduce TNFα secretions in human peripheral blood lymphocytes. The ability of a compound to reduce TNFα secretion is related to the EC50 value for the compound (i.e., the effective concentration of the compound capable of inhibiting 50% of the total TNFα).
To assess the ability of a compound to reduce TNFα secretion in human peripheral blood lymphocytes (PBL), the following tests were performed.
Heparinized blood (approximately 30 mL) drawn from human volunteers was mixed 1:1 with Dulbecco's modified phosphate-buffered saline. This mixture was mixed 1:1 with HISTOPAQUE® and centrifuged at 1,500 rpm at room temperature without braking in the swinging bucket of a Beckman model TJ6 centrifuge. Erythrocytes were centrifuged to the bottom of the tubes, and serum remained at the surface of the tubes. A layer containing lymphocytes sedimented between the serum and HISTOPAQUE® layers, and was removed by aspiration to a fresh tube. The cells were quantified and adjusted to […] and a 100 μL aliquot is placed into the wells of a 96 well plate. Test compounds and RPMI media (Gibco/BRL Life Sciences) are added to each of the wells 15 minutes prior to addition of bacterial LPS ([…]). The mixture was allowed to incubate for 20 hours at 37° C. in a humidified chamber. The cells then were separated by centrifuging at 800 rpm for 5 minutes at room temperature. An aliquot of 180 μL of supernatant was transferred to a new plate for determination of TNFα concentration. TNFα protein in the cell supernatant fluids was measured using a commercially available enzyme-linked immunosorbent assay (ELISA) (CYTOSCREEN® Immunoassay Kit from Biosource International).
The cell-based assay provided the following results for various compounds of the present invention. The EC50. values (i.e., effective concentration of the compound capable of inhibiting 50% of the total TNFα) illustrate the ability of the present compounds to inhibit LPS-stimulated TNFα release from human PBL.
The cell-based assay provided the following results for various pyrazole compounds of the present invention. The EC50 values (i.e., effective concentrations of the compound capable of inhibiting 50% of the total TNFα) illustrate the ability of the present compounds to inhibit LPS-stimulated TNFα release from human peripheral blood lymphocytes.

[2] abbreviates: structure table, read-out: PDE4 IC50.
The mark [3] stands for this setting: table with PBL/TNFα, read-out: PDE4 IC50.
The mark [4] stands for this setting: Homo sapiens, read-out: PBL/TNFα EC50 (μM).
Where [5] appears, read: LPS-stimulated TNFα release from human PBL, read-out: PBL/TNFα EC50.
Setting [6] is: PDE4 IC50 (μM), structure table.

Read-outs that look alike come from different tables or passages of the source.

T1 sequence (Q07343 whole entry): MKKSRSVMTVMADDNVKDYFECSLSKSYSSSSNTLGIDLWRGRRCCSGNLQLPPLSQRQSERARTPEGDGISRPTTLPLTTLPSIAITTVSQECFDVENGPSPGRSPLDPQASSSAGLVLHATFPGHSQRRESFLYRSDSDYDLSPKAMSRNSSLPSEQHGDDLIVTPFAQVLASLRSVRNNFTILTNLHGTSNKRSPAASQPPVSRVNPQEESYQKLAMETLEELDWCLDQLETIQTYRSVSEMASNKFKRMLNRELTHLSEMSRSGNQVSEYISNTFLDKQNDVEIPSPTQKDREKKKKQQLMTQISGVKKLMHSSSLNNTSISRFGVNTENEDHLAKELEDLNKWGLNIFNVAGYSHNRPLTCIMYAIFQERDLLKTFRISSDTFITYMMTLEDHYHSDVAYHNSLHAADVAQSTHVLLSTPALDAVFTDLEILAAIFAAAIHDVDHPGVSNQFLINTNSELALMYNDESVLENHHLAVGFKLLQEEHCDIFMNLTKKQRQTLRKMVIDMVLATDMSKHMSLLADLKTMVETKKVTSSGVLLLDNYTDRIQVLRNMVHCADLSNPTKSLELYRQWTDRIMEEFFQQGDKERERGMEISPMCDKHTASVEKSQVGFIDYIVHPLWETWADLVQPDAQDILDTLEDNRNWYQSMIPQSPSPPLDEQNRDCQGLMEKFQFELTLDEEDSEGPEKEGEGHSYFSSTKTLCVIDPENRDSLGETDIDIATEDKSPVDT

Usually IC50 stands for the concentration that gives 50% inhibition. Turning to `CCOC(=O)c1c(C)nn(-c2ccccc2)c1C` [Example 3, 3,5-dimethyl-1-phenyl-1H-pyrazole-4-carboxylic acid ethyl ester], the IC50 on human recombinant PDE4 (setting [2]) and at human recombinant PDE4 (setting [3]) was 0.31 µM throughout. In assay [1] (setting [4]), the EC50 amounted to 1.8 µM.
For the compound `CCOC(=O)c1c(C)nn(-c2ccc(C)cc2)c1C` [Example 4, 3,5-dimethyl-1-p-tolyl-1H-pyrazole-4-carboxylic acid ethyl ester], on human recombinant PDE4 (setting [2]), the IC50 turned out to be 3.94 µM.
Turning to `CCOC(=O)c1c(C)nn(-c2ccccc2[N+](=O)[O-])c1C` [Example 5, 3,5-dimethyl-1-(2-nitrophenyl)-1H-pyrazole-4-carboxylic acid ethyl ester], at human recombinant PDE4 (setting [2]), the IC50 is 0.65 µM.
Take `CCOC(=O)c1c(C)nn(-c2ccccc2N)c1C` [Example 6, 3,5-dimethyl-1-(2-aminophenyl)-1H-Pyrazole-4-carboxylic acid ethyl ester]: on human recombinant PDE4 (setting [2]), the half-inhibitory concentration (IC50) stood at 1.13 µM.
For the compound `CCOC(=O)c1c(C)nn(-c2ccc([N+](=O)[O-])cn2)c1C` [Example 7, 3,5-dimethyl-1-(5-nitropyridin-2-yl)-1H-pyrazole-4-carboxylic acid ethyl ester], on human recombinant PDE4 (read-out: PDE4 IC50, structure table), the half-maximal inhibitory concentration (IC50) was found to be 12.9 µM.
On to `CCOC(=O)c1c(C)nn(-c2cccc(N)c2)c1C` [Example 9, 1-(3-aminophenyl)-3,5-dimethyl-1H-pyrazole-4-carboxylic acid ethyl ester], for which the half-inhibitory concentration (IC50) on human recombinant PDE4 (setting [2]) stood at 1.03 µM; on human recombinant PDE4 (setting [3]), 1 µM. Moreover, in assay [1] (setting [4]), the EC50 was found to be 1.9 µM.
Take `CCOC(=O)c1c(C)nn(-c2ncccc2[N+](=O)[O-])c1C` [Example 10, 3,5-dimethyl-1-(3-nitropyridin-2-yl)-1H-pyrazole-4-carboxylic acid ethyl ester]: the half-maximal inhibitory concentration (IC50) on human recombinant PDE4 (setting [2]) and at human recombinant PDE4 (setting [3]) was 0.2 µM each time. In assay [1] (setting [5]), the EC50 came out at 2 µM.
Consider `CCOC(=O)c1c(C)nn(-c2ccc(N)cc2)c1C` [Example 11, 3,5-dimethyl-1-(4-aminophenyl)-1H-pyrazole-4-carboxylic acid ethyl ester], for which the IC50 at human recombinant PDE4 (setting [2]) and at human recombinant PDE4 (setting [3]) was 0.3 µM each time. The EC50 in assay [1] (setting [5]) came to 1 µM.
Regarding `CCOC(=O)c1c(C)nn(-c2ncccc2N)c1C` [Example 12, 1-(3-aminopyridin-2-yl)-3,5-dimethyl-1H-pyrazole-4-carboxylic acid ethyl ester], the half-inhibitory concentration (IC50) on human recombinant PDE4 (setting [2]) and on human recombinant PDE4 (setting [3]) was 0.94 µM each time. In addition, the EC50 in assay [1] (setting [4]) amounted to 2.6 µM.
`CCOC(=O)c1c(C)nn(-c2ccc(NS(=O)(=O)c3ccc(OC)cc3)cc2)c1C` [Example 13, 1-[4-(4-methoxybenzenesulfonylamino)phenyl]-3,5-dimethyl-1H-pyrazole-4-carboxylic acid ethyl ester]: the IC50 at human recombinant PDE4 (setting [6]) turned out to be 1.88 µM.
As for `CCOC(=O)c1c(C)nn(-c2ccc(NC(=O)C(C)(C)C)cc2)c1C` [Example 14, 1-[4-(2,2-dimethylpropionylamino)phenyl]-3,5-dimethyl-1H-pyrazole-4-carboxylic acid ethyl ester], at human recombinant PDE4 (setting [2]), the 50% inhibitory concentration (IC50) was found to be 6.39 µM.
`Cc1ccc(OC(=O)c2c(C)nn(-c3ccccc3)c2C)cc1` [Example 15, 3,5-dimethyl-1-phenyl-1H-pyrazole-4-carboxylic acid p-tolyl ester]: the IC50 at human recombinant PDE4 (setting [2]) was 36.5 µM.
Still for that read-out and setting: the same measure for `Cc1nn(-c2ncccc2[N+](=O)[O-])c(C)c1C(=O)O` [Example 16, 3,5-dimethyl-1-(3-nitropyridin-2-yl)-1H-pyrazole-4-carboxylic acid]: 47.4 µM; for `CCOC(=O)c1c(C)nn(-c2ccc([N+](=O)[O-])cn2)c1C` [Example 17, 3,5-dimethyl-1-(5-nitropyridin-2-yl)-1H-pyrazole-4-carboxylic acid ethyl ester]: 57.5 µM.
Regarding `Cc1nn(-c2ccc(N)cc2)c(C)c1C(=O)O` [Example 18, 1-(4-aminophenyl)-3,5-dimethyl-1H-pyrazole-4-carboxylic acid], at human recombinant PDE4 (setting [2]), the half-inhibitory concentration (IC50) came to 175 µM.
Take `CCOC(=O)c1c(C)nn(C2CCCCC2)c1C` [Example 19, 1-cyclohexyl-3,5-dimethyl-1H-pyrazole-4-carboxylic acid ethyl ester]: the half-maximal inhibitory concentration (IC50) on human recombinant PDE4 (setting [2]) and at human recombinant PDE4 (setting [3]) was 0.053 µM throughout. Moreover, in assay [1] (setting [5]), the EC50 was 0.52 µM.
On to `CCOC(=O)c1cn(-c2ccccn2)nc1C` [Example 26, 3-methyl-1-pyridin-2-yl-1H-pyrazole-4-carboxylic acid ethyl ester], for which, on human recombinant PDE4 (setting [2]), the IC50 was determined as 3.59 µM.
With `CCOC(=O)c1cnn(-c2ccc(N)cc2)c1C(F)(F)F` [Example 27, 1-(4-aminophenyl)-5-trifluoromethyl-1H-pyrazole-4-carboxylic acid ethyl ester], the IC50 at human recombinant PDE4 (setting [2]) amounted to 3.61 µM.
Turning to `Cc1nn(-c2ccccc2)c(C)c1C=O` [Example 28, 3,5-Dimethyl-1-phenyl-1H-pyrazole-4-carboxaldehyde], the IC50 on human recombinant PDE4 (setting [2]) was determined as 18 µM.
As for `COC(=O)c1cnn(-c2cc(C(F)(F)F)cc(C)n2)c1C(=O)C=CN(C)C` [Example 29, 5-(3-Dimethylaminoacryloyl)-1-(6-methyl-4-trifluoromethylpyridin-2-yl)-1H-pyrazole-4-carboxylic acid methyl ester], the concentration for half-maximal inhibition (IC50) on human recombinant PDE4 (setting [2]) was found to be 37 µM.
Still for that read-out and setting: the same measure for `CCOC(=O)c1cnn(-c2ccc([N+](=O)[O-])cc2)c1C(F)(F)F` [Example 30, 1-(4-Nitrophenyl)-5-trifluoromethyl-1H-pyrazole-4-carboxylic acid ethyl ester]: 45.4 µM; for `CCOC(=O)c1cnn(-c2ncc(C(F)(F)F)cc2Cl)c1C` [Example 31, 1-(3-Chloro-5-trifluoromethylpyridin-2-yl)-5-methyl-1H-pyrazole-4-carboxylic acid ethyl ester]: 63 µM; for `C/C(=N\O)c1cnn(-c2cc(C(F)(F)F)cc(C)n2)c1C` [Example 32, 1-[5-Methyl-1-(6-methyl-4-trifluoromethyl-pyridin-2-yl)-1H-pyrazol-4-yl]-ethanone oxime]: 67.4 µM.
As for `COC(=O)c1cnn(-c2cc(C(F)(F)F)cc(C)n2)c1C(C)=O` [Example 33, 5-Acetyl-1-(6-methyl-4-trifluoromethylpyridin-2-yl)-1H-pyrazole-4-carboxylic acid methyl ester], the concentration for half-maximal inhibition (IC50) at human recombinant PDE4 (setting [2]) stood at 88.2 µM.
The same measure, in the same setting: the same measure for `Cc1nn(-c2ccccc2)c(C)c1C(=O)Nc1ccncc1` [Example 34, 3,5-Dimethyl-1-phenyl-1H-pyrazole-4-carboxylic acid pyridin-4-ylamide]: 97.9 µM; for `CCOC(=O)c1cnn(-c2c(Cl)cc(Cl)cc2Cl)c1COC` [Example 35, 5-Methoxymethyl-1-(2,4,6-trichlorophenyl)-1H-pyrazole-4-carboxylic acid ethyl ester]: 131 µM.
Regarding `Cc1nn(-c2ccccc2)c(C)c1C(=O)Nc1ccccc1` [Example 36, 3,5-Dimethyl-1-phenyl-1H-pyrazole-4-carboxylic acid phenylamide], the half-inhibitory concentration (IC50) on human recombinant PDE4 (setting [2]) came to 142 µM.
Consider `COC(=O)c1cnn(-c2ccccn2)c1C(C)=O` [Example 37, 5-Acetyl-1-pyridin-2-yl-1H-pyrazole-4-carboxylic acid methyl ester], for which the half-inhibitory concentration (IC50) at human recombinant PDE4 (setting [2]) amounted to 181 µM.
`CCOC(=O)c1c(C)nn(-c2ccc(N=Cc3ccccc3O)cc2)c1C` [Example 38]: the IC50 at human recombinant PDE4 (setting [6]) turned out to be 0.4 µM; at human recombinant PDE4 (PDE4 IC50 (μM), table with PBL/TNFα), 0.4 µM. Also, in assay [1] (setting [4]), the EC50 amounted to 1 µM.
